Patent US8815872B2, “Macrocyclics pyrimidines as aurora kinase inhibitors” (Merck Patent GmbH, priority 2008, dated 2014)

Columns and labels:
Type in all cases: biochemical
[1] = biological target: T1, cKit(D816V)(h) (Homo sapiens, UniProt P10721, D816V); assay: Other kinases, single-concentration inhibition (Table 3)
T1 construct: purchased Caliper Life Sciences
Method in brief: (§1)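 Compound inhibition at one concentration was assessed by monitoring peptide phosphorylation via charge-based separation of fluorescent substrate and product. Incubation lasted 90 min at 25 °C before EDTA stop. Values are percent inhibition relative to no-inhibitor and no-ATP wells.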

[2] = biological target: T2, MSK2(h) (Homo sapiens, UniProt O75676); assay: as above
T2 construct: purchased Caliper Life Sciences
T2 sequence (O75676 whole entry): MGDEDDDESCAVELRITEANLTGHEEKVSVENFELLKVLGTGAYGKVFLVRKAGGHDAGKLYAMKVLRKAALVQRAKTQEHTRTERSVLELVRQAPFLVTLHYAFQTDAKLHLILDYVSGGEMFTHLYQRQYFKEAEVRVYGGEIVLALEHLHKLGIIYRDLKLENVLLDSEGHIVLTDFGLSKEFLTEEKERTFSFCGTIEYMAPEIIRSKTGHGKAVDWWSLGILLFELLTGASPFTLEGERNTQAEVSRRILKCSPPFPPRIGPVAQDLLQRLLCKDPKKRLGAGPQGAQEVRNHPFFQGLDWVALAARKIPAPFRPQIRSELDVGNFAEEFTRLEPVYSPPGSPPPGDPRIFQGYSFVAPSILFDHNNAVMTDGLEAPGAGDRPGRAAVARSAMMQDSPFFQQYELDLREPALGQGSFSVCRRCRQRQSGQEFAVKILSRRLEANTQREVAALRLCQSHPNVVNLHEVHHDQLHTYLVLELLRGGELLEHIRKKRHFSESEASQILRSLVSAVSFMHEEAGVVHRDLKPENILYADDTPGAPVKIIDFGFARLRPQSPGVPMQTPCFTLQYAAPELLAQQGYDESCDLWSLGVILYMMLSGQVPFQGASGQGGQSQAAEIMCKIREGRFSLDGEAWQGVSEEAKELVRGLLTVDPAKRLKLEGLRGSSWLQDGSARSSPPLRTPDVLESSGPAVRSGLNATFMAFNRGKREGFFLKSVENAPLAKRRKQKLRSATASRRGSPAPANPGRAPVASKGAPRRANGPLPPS
Method in brief: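 The screen used frozen pre-plated kinases, each paired with its own fluorescent peptide substrate and ATP concentration. Compound was tested at a single concentration over a 90 min reaction at 25 °C. Phosphorylated product was quantified by capillary electrophoretic mobility shift.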

[3] = biological target: T3, ROCK-II(h) (Homo sapiens, UniProt O75116); assay: as above
T3 construct: purchased Caliper Life Sciences
T3 sequence (O75116 whole entry): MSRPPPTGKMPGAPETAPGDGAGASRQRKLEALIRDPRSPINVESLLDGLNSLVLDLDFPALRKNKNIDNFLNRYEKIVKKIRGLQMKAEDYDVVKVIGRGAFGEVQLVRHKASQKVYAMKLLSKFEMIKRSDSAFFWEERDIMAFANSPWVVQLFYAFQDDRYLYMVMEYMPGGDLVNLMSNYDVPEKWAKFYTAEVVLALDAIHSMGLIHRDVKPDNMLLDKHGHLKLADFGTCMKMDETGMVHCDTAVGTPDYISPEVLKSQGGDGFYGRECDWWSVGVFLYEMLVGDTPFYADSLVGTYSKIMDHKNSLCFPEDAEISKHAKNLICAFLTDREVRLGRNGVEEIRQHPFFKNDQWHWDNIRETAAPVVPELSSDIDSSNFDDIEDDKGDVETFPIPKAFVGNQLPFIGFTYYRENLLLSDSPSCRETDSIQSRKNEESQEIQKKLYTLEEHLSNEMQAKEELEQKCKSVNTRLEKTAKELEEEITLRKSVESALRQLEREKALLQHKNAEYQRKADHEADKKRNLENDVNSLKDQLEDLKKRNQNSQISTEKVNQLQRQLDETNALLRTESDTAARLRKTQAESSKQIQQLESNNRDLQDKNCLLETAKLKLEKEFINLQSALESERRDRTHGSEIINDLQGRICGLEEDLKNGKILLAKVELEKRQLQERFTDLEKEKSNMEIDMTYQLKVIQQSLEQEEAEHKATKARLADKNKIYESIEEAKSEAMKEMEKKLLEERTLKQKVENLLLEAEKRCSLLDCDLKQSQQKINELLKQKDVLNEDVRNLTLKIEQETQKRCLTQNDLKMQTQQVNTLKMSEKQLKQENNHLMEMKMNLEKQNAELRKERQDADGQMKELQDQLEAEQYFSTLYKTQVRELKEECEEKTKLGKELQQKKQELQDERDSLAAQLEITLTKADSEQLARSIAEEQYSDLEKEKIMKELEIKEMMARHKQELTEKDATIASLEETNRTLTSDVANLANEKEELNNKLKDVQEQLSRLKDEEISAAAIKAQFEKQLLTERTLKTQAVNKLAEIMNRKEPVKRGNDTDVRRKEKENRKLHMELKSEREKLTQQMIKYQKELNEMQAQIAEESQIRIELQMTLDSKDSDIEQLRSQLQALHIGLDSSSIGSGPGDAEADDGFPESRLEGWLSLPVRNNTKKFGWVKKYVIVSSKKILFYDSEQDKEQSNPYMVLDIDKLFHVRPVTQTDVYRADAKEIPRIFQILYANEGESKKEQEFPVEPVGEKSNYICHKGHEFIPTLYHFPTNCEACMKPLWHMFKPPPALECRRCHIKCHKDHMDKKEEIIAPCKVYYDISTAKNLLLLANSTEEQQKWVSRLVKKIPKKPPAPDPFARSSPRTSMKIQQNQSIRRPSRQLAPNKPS
Method in brief: as §1

[4] = biological target: T4, ZAP-70(h) (Homo sapiens, UniProt P43403); assay: as above
T4 construct: purchased Caliper Life Sciences
T4 sequence (P43403 1-619): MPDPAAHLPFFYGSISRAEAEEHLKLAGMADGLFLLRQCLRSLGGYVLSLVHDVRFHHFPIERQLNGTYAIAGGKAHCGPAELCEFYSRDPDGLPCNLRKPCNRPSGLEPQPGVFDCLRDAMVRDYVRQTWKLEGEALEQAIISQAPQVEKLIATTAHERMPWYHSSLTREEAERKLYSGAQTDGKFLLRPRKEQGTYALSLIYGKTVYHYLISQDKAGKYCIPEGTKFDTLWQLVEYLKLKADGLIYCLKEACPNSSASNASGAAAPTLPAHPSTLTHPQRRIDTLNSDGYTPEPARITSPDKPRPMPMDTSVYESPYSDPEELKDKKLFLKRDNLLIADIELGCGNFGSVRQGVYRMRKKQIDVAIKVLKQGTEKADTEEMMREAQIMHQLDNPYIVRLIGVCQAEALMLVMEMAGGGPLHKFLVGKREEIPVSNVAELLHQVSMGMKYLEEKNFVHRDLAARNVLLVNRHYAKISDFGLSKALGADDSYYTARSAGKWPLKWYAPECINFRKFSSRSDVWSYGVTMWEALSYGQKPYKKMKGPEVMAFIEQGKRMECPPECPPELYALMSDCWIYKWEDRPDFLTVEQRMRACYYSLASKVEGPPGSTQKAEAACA
Method in brief: as §1

[5] = biological target: T5, FAK(h) (Homo sapiens, UniProt Q05397); assay: as above
T5 construct: purchased Caliper Life Sciences
T5 sequence (Q05397 whole entry): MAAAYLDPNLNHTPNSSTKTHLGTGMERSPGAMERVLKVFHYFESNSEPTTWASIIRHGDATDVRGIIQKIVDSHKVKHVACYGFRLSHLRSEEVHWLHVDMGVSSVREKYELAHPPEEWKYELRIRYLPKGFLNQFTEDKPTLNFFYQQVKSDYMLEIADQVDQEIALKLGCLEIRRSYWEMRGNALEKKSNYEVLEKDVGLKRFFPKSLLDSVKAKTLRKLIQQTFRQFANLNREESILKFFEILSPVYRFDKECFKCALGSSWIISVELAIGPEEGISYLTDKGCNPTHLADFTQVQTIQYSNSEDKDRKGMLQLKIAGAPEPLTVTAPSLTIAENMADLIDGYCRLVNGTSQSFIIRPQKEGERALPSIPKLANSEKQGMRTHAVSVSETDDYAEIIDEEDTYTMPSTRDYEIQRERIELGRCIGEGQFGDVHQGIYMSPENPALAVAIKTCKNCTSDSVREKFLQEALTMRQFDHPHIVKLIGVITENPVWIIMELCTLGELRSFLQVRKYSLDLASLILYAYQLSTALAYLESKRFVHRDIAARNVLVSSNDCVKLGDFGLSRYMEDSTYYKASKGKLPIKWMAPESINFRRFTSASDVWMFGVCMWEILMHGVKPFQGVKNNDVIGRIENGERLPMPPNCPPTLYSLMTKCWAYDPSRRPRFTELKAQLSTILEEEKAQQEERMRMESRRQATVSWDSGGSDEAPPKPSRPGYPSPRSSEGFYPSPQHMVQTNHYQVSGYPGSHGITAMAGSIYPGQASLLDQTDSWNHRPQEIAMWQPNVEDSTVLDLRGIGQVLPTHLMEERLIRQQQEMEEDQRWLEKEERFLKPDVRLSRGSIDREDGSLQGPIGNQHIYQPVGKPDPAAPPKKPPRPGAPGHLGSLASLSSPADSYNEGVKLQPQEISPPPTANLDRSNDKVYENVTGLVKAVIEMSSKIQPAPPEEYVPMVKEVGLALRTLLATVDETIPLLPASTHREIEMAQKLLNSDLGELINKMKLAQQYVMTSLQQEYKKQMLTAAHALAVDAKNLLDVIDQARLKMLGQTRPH
Method in brief: as §1

[6] = biological target: T6, EphB2(h) (Homo sapiens, UniProt P29323); assay: as above
T6 construct: purchased Caliper Life Sciences
T6 sequence (P29323 19-1055): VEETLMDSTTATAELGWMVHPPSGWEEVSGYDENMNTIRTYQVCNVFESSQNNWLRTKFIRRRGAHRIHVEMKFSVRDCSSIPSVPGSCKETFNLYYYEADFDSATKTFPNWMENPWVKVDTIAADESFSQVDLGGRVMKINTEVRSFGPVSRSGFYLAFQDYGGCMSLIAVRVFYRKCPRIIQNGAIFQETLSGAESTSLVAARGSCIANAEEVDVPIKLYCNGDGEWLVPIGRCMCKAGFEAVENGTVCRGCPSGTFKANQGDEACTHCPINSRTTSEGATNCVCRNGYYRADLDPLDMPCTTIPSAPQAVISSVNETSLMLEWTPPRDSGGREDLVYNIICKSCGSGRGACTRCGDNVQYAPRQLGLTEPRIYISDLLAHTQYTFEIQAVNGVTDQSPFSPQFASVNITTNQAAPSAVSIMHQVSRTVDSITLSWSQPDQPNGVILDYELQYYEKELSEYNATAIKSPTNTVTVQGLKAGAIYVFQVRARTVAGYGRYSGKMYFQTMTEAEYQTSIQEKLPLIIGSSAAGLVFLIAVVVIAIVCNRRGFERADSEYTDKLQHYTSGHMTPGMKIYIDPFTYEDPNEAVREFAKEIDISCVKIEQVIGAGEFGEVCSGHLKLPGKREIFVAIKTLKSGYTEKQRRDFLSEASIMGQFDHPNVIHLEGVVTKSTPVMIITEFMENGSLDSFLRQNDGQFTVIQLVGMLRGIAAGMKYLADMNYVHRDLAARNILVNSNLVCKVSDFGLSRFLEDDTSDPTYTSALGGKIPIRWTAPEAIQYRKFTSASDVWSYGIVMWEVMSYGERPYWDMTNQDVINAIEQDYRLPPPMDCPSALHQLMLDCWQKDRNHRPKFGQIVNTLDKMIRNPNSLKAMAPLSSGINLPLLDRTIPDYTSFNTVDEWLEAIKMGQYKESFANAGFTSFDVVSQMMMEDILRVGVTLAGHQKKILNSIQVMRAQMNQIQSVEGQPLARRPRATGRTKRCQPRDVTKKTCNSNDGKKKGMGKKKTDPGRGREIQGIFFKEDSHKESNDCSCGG
Method in brief: as §1

[7] = biological target: T7, PKCα(h) (Homo sapiens, UniProt P17252); assay: as above
T7 construct: purchased Caliper Life Sciences
Method in brief: as §1

[8] = biological target: T8, Tie2(h) (Homo sapiens, UniProt Q02763); assay: Inhibition of other kinases IC50 (Table 2)
T8 construct: purchased Caliper Life Sciences
Procedure: (§2) The Aurora and other kinase assays described here were performed on two Caliper Life Sciences systems, the LC3000 and the Desktop Profiler. These provide data on enzyme activity via measurement of the relative amounts of phosphorylated or unphosphorylated fluorescently labelled substrate peptide at the end of an enzymatic reaction. These different states of peptide are resolved by applying a potential difference across the sample. The presence of a charged phosphate group on the product (as opposed to the substrate) causes a different peptide mobility between the two peptides. This is visualized by excitation of a fluorescent label on the substrate and product peptides and represented as peaks within the analysis software.

[9] = biological target: T9, Ret(h) (Homo sapiens, UniProt P07949); assay: Inhibition of other kinases IC50 (Table 2)
T9 construct: purchased Caliper Life Sciences
Procedure: as §2

T1 sequence (P10721 26-976 D816V): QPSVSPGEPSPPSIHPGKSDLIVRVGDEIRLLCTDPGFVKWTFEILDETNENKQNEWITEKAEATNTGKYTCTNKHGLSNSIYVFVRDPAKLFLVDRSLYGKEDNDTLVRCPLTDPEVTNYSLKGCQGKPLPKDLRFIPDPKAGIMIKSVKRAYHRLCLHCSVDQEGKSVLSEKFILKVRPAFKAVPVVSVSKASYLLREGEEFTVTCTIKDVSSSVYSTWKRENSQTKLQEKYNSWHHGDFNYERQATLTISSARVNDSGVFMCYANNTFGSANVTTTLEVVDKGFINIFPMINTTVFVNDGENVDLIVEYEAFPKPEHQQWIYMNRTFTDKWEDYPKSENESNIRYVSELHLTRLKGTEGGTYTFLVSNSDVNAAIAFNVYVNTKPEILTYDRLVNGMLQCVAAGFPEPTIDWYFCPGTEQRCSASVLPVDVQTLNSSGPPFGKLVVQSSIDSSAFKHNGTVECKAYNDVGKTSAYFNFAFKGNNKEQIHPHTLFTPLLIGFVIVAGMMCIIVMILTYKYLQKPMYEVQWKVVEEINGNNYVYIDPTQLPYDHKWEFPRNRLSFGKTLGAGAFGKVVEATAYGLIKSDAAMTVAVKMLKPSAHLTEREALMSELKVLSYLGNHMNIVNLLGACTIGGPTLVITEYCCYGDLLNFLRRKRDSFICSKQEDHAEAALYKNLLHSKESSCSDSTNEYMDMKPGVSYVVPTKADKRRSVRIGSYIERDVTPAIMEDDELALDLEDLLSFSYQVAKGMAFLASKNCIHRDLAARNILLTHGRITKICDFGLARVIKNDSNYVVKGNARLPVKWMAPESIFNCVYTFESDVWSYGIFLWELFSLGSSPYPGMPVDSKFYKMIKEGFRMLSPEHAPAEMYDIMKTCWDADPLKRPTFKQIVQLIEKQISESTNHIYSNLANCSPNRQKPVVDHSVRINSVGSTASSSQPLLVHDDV

| Compound | % inhibition cKit(D816V)(h) ([1]; 1 μM) [%] | % inhibition MSK2(h) ([2]; 1 μM) [%] | % inhibition ROCK-II(h) ([3]; 1 μM) [%] | % inhibition ZAP-70(h) ([4]; 1 μM) [%] | % inhibition FAK(h) ([5]; 1 μM) [%] | % inhibition EphB2(h) ([6]; 1 μM) [%] | % inhibition PKCα(h) ([7]; 1 μM) [%] | IC50 [8] [µM] | IC50 [9] [µM] | % inhibition cKit(D816V)(h) ([1]; 10 μM) [%] | % inhibition MSK2(h) ([2]; 10 μM) [%] | % inhibition ROCK-II(h) ([3]; 10 μM) [%] | % inhibition ZAP-70(h) ([4]; 10 μM) [%] | % inhibition FAK(h) ([5]; 10 μM) [%] | % inhibition EphB2(h) ([6]; 10 μM) [%] | % inhibition PKCα(h) ([7]; 10 μM) [%] |
| --- | --- | --- | --- | --- | --- | --- | --- | --- | --- | --- | --- | --- | --- | --- | --- | --- |
| C=C[C@@H]1C[C@@H]2/C=C/COc3cccc(c3)Nc3ncc(F)c(n3)N[C@H]2[C@H]1C(N)=O (single isomer, unassigned) [Example 3] | 77 | 136 | 80 | 109 | 86 | 94 | 70 | – | – | – | – | – | – | – | – | – |
| NC(=O)[C@H]1[C@H]2C[C@H]3[C@H]1Nc1nc(ncc1F)Nc1cccc(c1)CSS[C@@H]3C2 [Example 10] | 96 | 3 | 90 | 118 | 3 | 5 | 90 | – | – | – | – | – | – | – | – | – |
| NC(=O)[C@H]1[C@H]2C[C@H]3[C@H]1Nc1nc(ncc1F)Nc1cccc(c1)C(=O)CS[C@@H]3C2 [Example 11] | 102 | 89 | 102 | 124 | 77 | 115 | 94 | – | – | – | – | – | – | – | – | – |
| NC(=O)[C@H]1[C@H]2C[C@H]3[C@H]1Nc1nc(ncc1F)Nc1cccc(c1)OCCS[C@@H]3C2 [Example 20] | 112 | 48 | 99 | 122 | 11 | 27 | 107 | 0.101 to 1 | 0.101 to 1 | – | – | – | – | – | – | – |
| O=C(O)[C@H]1[C@H]2C[C@H]3[C@H]1Nc1nc(ncc1F)Nc1cccc(c1)OCCS[C@@H]3C2 [Example 21] | – | – | – | – | – | – | – | – | – | 104 | 75 | 94 | 94 | 7 | 8 | 91 |

Next, values leading:

| % inhibition cKit(D816V)(h) ([1]; 1 μM) [%] | % inhibition MSK2(h) ([2]; 1 μM) [%] | % inhibition ROCK-II(h) ([3]; 1 μM) [%] | % inhibition ZAP-70(h) ([4]; 1 μM) [%] | % inhibition FAK(h) ([5]; 1 μM) [%] | % inhibition EphB2(h) ([6]; 1 μM) [%] | % inhibition PKCα(h) ([7]; 1 μM) [%] | IC50 [8] [µM] | IC50 [9] [µM] | % inhibition cKit(D816V)(h) ([1]; 10 μM) [%] | % inhibition MSK2(h) ([2]; 10 μM) [%] | % inhibition ROCK-II(h) ([3]; 10 μM) [%] | % inhibition ZAP-70(h) ([4]; 10 μM) [%] | % inhibition FAK(h) ([5]; 10 μM) [%] | % inhibition EphB2(h) ([6]; 10 μM) [%] | % inhibition PKCα(h) ([7]; 10 μM) [%] | Compound |
| --- | --- | --- | --- | --- | --- | --- | --- | --- | --- | --- | --- | --- | --- | --- | --- | --- |
| 103 | 56 | 105 | 122 | 91 | 94 | 84 | – | – | – | – | – | – | – | – | – | CC[C@@H]1C[C@@H]2CCCOc3cccc(c3)Nc3ncc(F)c(n3)N[C@H]2[C@H]1C(N)=O (single isomer, unassigned) [Example 5] |
| 96 | 60 | 97 | 125 | 81 | 80 | 90 | – | – | – | – | – | – | – | – | – | CC[C@@H]1C[C@@H]2/C=C\COc3cccc(c3)Nc3ncc(F)c(n3)N[C@H]2[C@H]1C(N)=O (single isomer, unassigned) [Example 6] |
| 112 | 60 | 92 | – | 30 | 16 | 100 | – | – | – | – | – | – | – | – | – | CN1CCN(c2ccc3cc2OCCS[C@@H]2C[C@@H]4C[C@H]2[C@@H](Nc2nc(ncc2F)N3)[C@H]4C(N)=O)CC1 [Example 22] |
| 97 | 81 | 120 | 112 | 30 | 17 | 103 | – | – | – | – | – | – | – | – | – | CN1CCN(c2ccc3cc2NC(=O)CS[C@@H]2C[C@@H]4C[C@H]2[C@@H](Nc2nc(ncc2F)N3)[C@H]4C(N)=O)CC1 [Example 24] |
| 112 | 2 | 94 | 112 | 35 | 112 | 81 | – | – | – | – | – | – | – | – | – | N#Cc1ccc2cc1NC(=O)CS[C@@H]1C[C@@H]3C[C@H]1[C@@H](Nc1nc(ncc1F)N2)[C@H]3C(N)=O [Example 26] |
| 95 | 65 | 110 | 125 | 41 | 67 | 102 | 0.101 to 1 | 0.001 to 0.1 | – | – | – | – | – | – | – | NC(=O)[C@H]1[C@H]2C[C@H]3[C@H]1Nc1nc(ncc1F)Nc1cccc(c1)NC(=O)CS[C@@H]3C2 [Example 27] |
